From patent US12516104B2, “Compositions and methods for diagnosis and treatment of cancer” (BioNTech SE, priority 2018, dated 2026)
Each block holds one substance with its values, some of them ahead of it. Ends that are not written are not given here.

How the values were obtained:
U-87 MG tumor tissues = assay: Immunofluorescence staining of U-87 MG xenograft tumor sections; format: binding, human; conditions: biotinylated miniprotein tetramerized with Cy3-labeled streptavidin; CD31 co-staining
Protocol: FIG. 8: Specific binding of MC-FN-010 to glioblastoma xenograft tumor sections. Representative results of immunofluorescence staining of U-87 MG tumor tissues with EDB ligand MC-FN-010 and negative control MC-FN-0115. The tissue sections (5 μm) were stained with tetramerized cystine-knot miniprotein-biotin strepatividin-Cy3 complex (red) and with an anti-CD31 antibody to visualize vasculature (green). Scale bars indicate 100 μm.
FIG. 13: Specific binding of MC-FN-010 to tissue sections derived from the human U-87 MG glioblastoma cell line grown as mouse xenograft tumor. […] Tissue sections (6 μm) were stained with Alexa Fluor 680 conjugated trimeric cystine-knot miniproteins and an anti-CD31 antibody detected with a secondary antibody to visualize vasculature. […]
(§1) For immunofluorescence staining cryopreserved tumor or brain pieces were cut in five micron thick sections, fixed in ice cold acetone for 5 min and air-dried. […] Images were captured with a Zeiss Apotome microscope (Carl Zeiss) and analyzed with ZEN software (Carl Zeiss).
(§2) Cryopreserved tumor or brain pieces were cut in six micron thick sections, fixed in l ice cold acetone for 5 min and air-dried. […] CD31 staining of primary anti-mouse CD31 antibody was detected with a secondary anti-rabbit IgG-Cy3 antibody (111-165-003, Jackson ImmunoResearch) diluted 1:400 in PBS with 1% BSA for 30 min at 37° C. […]

normal mouse brain = assay: Immunofluorescence staining of normal mouse brain sections; format: binding; conditions: biotinylated miniprotein tetramerized with Cy3-labeled streptavidin
Protocol: FIG. 12: Representative immunofluorescence staining of normal mouse brain with EDB ligand MC-FN-010 and negative control MC-FN-0115. Tissue sections (6 μm) were stained with tetramerized cystine-knot miniprotein-biotin/strepatividin-Cy3 complex and an anti-CD31 antibody to visualize vasculature. Scale bars, 100 μm.
FIG. 13: Specific binding of MC-FN-010 to tissue sections derived from the human U-87 MG glioblastoma cell line grown as mouse xenograft tumor. Representative immunofluorescence staining of U-87 MG tumor tissues (A) and normal mouse brain (B) with trimeric MC-FN-010 and negative control MC-FN-0115. Tissue sections (6 μm) were stained with Alexa Fluor 680 conjugated trimeric cystine-knot miniproteins and an anti-CD31 antibody detected with a secondary antibody to visualize vasculature. […]
as §1, §2

FN-67B89 = target: T1, FN-67B89 (Homo sapiens, UniProt P02751); assay: Surface plasmon resonance spectroscopy on immobilized biotinylated FN-67B89; format: binding; conditions: for off-rates / binding affinity towards biotinylated FN-67B89: tag-free monomer; for binding affinity towards biotinylated FN-67B89: multi cycle kinetic, 1:1 Langmuir
T1 construct: FN-67B89, amino acid G1080-E1455; made in house; host or cells: E. coli BL21 (DE3), pET-21a
Protocol: FIG. 10: A: Kinetic parameters of MC-FN-010 and MC-FN-016 resulting from surface plasmon resonance analysis. Biotinylated human FN-67B89 was immobilized to streptavidin sensor to perform affinity determination of MC-FN-010 and MC-FN-016 using two-fold serial dilutions starting from 4000 nM. Kinetic parameters were calculated using a 1:1 Langmuir fitting model applied to generated sensorgrams. B: Kinetic parameters of AF680-(MC-FN-010)3 and AF680-(MC-FN-016)3 resulting from surface plasmon resonance with single cycle kinetic analysis. Biotinylated human FN-67B89 was immobilized to streptavidin chip to perform binding determination of AF680-(MC-FN-010)3 and AF680-(MC-FN-016)3 using two-fold serial dilution starting from 10 nM. Kinetic parameters were calculated using a 1:1 Langmuir fitting model applied to generated sensorgrams.
FIG. 15: SPR binding analysis of cystine-knot miniprotein variants to EDB. Kinetic parameters of EDB-specific cystine-knot miniprotein variants as measured by surface plasmon resonance analysis and calculated using a 1:1 Langmuir fitting model. Biotinylated human FN-67B89 was immobilized to a streptavidin sensor to determine affinity of DOTA-(MC-FN-016)3 using two-fold serial dilutions.
Binding kinetics of monomeric and trimeric cystine-knot miniprotein ligands to its target protein was determined using a Biacore T-100 device (GE Healthcare Life Science) with PBS-T as running buffer. For this, the biotinylated FN-67B89 protein (200-300 μg/mL) was captured by binding to a flow cell of a SA sensor chip (GE Healthcare Life Science). To analyze monomeric ligands an immobilized target density of maximum 750 response units (RU) was applied and for trimeric variants a RU of maximum 400 was aimed for. Binding analysis of monomeric ligands was performed using a multi cycle kinetic method with concentrations ranging from 50 to 4000 nM. A cycle started with an association period of 90 sec, followed by a dissociation period of 420 sec and a final regeneration step. Kinetic measurement was conducted applying a flow rate of 20 μL/min. Trimeric variants were analyzed under the same association and dissociation conditions, but using the single cycle kinetic measurement mode in a constant flow of […]. In this case the analyte concentration was between 1.25 nM to 10 nM. Binding kinetics and steady state analysis were calculated using a global kinetic fit model (1:1 Langmuir, Biacore T-100 Evaluation Software, GE Healthcare Life Science).

FN-6789 = target: T2, FN-6789 (Homo sapiens, UniProt P02751); assay: ELISA specificity: binding of Trx-cystine-knot miniproteins to off-target FN-6789 and control proteins; conditions: for off-target and control protein signals: 200 nM Trx-fusion, FN-6789, milk powder, streptavidin, bovine serum albumin
T2 construct: type III domains 6-9 without EDB (FN-6789); made in house; host or cells: E. coli BL21 (DE3), pET-21a
Protocol: FIG. 4: Specificity analysis of Trx-cystine-knot miniprotein clones MCopt 1.0-1/-2/-3 and MCopt 2.0-1/-2/-3. 200 nM of each variant were applied to immobilized FN-B and FN-67B89 target proteins as well as to control proteins FN-6789, milk powder and bovine serum albumin (coated at 1 μg/well). An HRP-conjugated anti-s-tag antibody was used to analyze binding. ELISA was performed in duplicates with Trx-MC-Myc-010 serving as negative control.
FIG. 5: Extended specificity analysis of Trx-cystine-knot miniprotein clones MCopt 1.0-2/-3 and MCopt 2.0-1/-2/3. In total 200 nM of each variant were applied to FN-B, T7-TEV-B, FN-67B89 and FN-B(8-14) target proteins as well as negative controls FN-6789, milk powder, bovine serum albumin, lysozyme, ovalbumin and aldolase (coated at 1 μg/well). ELISA was performed in duplicates, error bars represent standard deviation and Trx-MC-Myc-010 served as negative cystine-knot miniprotein control.
FIG. 6: Saturation-binding curves of MCopt 1.0-2/-3 and MCopt 2.0-1/-2/-3 EDB binding. Trx-cystine-knot miniprotein binding was assayed against FN-B, FN-67B89 and FN-B(8-14) targets as well as against FN-6789 control protein (coated at 1 μg/well) in ten different concentrations. Binding of Trx-cystine-knot miniproteins was detected with an HRP-conjugated anti-s-tag-antibody. ELISAs were performed in duplicates (single values for FN-B(8-14)). A: from top to bottom SEQ ID NOs: 7, 8, and 12; and B: from top to bottom SEQ ID NOs: 11, 8, and 29.
FIG. 9: A: Specificity analysis of Trx-MC-FN-010 to human FN-67B89 and FN-6789 using ELISA. B: Specificity analysis of Trx-MC-FN-016 to human FN-67B89 and FN-6789 using ELISA. Binding of Trx-MC-FN-010 and Trx-MC-FN-016 to FN-67B89 with concentrations ranging from 1.56-50 nM in comparison to FN-6789 was detected with 50 ng of HRP-conjugated anti-S-tag-antibody. ELISA was performed in duplicates using 1 μg coated FN-67B89 or FN-6789 per well.
ELISA was used as technique to analyze protein-protein interactions. Cavities of 96-well microtiter plates (Nunc MaxiSorp™, Thermo Fisher Scientific) were coated with 1 μg FN-B, bovine serum albumin (BSA, Eurobio), milk powder, streptavidin (Sigma Aldrich), T7-His-TEV-B (LD BioPharma), FN-B(8-14) (R&D Systems), lysozyme, ovalbumin (GE Healthcare Life Science), aldolase (GE Healthcare Life Science) or 0.6 μg anti-c-myc-antibody (M4439, Sigma) overnight at 4° C. The wells were washed three times with PBS-T (1×PBS with 0.1% (w/v) Tween-20), blocked with 1× Casein buffer (Sigma Aldrich) diluted in PBS for 2 h at RT and washed again as described. 20 μL of supernatant containing the respective heat-purified fusion protein was added to 80 μL PBS-T or 200 nM of MC-Myc-010 fusion protein (wells with anti-c-myc-antibody) diluted in PBS-T, applied to the cavities and incubated for 1 h at 4° C. After three times of washing with PBS-T, binding of the respective variant was detected with a horseradish peroxidase (HRP)-conjugated anti-S-tag antibody (ab18589 or ab19324, Abcam). Enzymatic reaction was measured with TMB as a chromogenic substrate and stopped with 0.2 M HCl after approximately 5 min. The measurement of absorbance at 450 nm was performed using an Infinite M200 PRO Microplate Reader (Tecan).

T1 sequence (P02751 1080-1546): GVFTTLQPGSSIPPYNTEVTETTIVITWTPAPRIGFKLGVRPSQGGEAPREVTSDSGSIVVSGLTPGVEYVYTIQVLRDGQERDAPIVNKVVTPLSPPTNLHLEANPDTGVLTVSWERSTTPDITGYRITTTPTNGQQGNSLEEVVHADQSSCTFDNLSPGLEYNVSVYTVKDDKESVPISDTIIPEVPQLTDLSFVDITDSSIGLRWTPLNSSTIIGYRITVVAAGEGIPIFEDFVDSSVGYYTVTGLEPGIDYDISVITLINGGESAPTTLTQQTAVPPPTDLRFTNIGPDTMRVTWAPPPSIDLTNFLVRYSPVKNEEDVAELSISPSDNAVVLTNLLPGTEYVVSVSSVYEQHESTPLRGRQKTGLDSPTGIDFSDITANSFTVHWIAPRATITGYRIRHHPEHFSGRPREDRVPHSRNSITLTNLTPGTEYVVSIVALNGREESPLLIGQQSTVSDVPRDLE
T2 sequence (P02751 32-2386 isoform P02751-1 limits assumed): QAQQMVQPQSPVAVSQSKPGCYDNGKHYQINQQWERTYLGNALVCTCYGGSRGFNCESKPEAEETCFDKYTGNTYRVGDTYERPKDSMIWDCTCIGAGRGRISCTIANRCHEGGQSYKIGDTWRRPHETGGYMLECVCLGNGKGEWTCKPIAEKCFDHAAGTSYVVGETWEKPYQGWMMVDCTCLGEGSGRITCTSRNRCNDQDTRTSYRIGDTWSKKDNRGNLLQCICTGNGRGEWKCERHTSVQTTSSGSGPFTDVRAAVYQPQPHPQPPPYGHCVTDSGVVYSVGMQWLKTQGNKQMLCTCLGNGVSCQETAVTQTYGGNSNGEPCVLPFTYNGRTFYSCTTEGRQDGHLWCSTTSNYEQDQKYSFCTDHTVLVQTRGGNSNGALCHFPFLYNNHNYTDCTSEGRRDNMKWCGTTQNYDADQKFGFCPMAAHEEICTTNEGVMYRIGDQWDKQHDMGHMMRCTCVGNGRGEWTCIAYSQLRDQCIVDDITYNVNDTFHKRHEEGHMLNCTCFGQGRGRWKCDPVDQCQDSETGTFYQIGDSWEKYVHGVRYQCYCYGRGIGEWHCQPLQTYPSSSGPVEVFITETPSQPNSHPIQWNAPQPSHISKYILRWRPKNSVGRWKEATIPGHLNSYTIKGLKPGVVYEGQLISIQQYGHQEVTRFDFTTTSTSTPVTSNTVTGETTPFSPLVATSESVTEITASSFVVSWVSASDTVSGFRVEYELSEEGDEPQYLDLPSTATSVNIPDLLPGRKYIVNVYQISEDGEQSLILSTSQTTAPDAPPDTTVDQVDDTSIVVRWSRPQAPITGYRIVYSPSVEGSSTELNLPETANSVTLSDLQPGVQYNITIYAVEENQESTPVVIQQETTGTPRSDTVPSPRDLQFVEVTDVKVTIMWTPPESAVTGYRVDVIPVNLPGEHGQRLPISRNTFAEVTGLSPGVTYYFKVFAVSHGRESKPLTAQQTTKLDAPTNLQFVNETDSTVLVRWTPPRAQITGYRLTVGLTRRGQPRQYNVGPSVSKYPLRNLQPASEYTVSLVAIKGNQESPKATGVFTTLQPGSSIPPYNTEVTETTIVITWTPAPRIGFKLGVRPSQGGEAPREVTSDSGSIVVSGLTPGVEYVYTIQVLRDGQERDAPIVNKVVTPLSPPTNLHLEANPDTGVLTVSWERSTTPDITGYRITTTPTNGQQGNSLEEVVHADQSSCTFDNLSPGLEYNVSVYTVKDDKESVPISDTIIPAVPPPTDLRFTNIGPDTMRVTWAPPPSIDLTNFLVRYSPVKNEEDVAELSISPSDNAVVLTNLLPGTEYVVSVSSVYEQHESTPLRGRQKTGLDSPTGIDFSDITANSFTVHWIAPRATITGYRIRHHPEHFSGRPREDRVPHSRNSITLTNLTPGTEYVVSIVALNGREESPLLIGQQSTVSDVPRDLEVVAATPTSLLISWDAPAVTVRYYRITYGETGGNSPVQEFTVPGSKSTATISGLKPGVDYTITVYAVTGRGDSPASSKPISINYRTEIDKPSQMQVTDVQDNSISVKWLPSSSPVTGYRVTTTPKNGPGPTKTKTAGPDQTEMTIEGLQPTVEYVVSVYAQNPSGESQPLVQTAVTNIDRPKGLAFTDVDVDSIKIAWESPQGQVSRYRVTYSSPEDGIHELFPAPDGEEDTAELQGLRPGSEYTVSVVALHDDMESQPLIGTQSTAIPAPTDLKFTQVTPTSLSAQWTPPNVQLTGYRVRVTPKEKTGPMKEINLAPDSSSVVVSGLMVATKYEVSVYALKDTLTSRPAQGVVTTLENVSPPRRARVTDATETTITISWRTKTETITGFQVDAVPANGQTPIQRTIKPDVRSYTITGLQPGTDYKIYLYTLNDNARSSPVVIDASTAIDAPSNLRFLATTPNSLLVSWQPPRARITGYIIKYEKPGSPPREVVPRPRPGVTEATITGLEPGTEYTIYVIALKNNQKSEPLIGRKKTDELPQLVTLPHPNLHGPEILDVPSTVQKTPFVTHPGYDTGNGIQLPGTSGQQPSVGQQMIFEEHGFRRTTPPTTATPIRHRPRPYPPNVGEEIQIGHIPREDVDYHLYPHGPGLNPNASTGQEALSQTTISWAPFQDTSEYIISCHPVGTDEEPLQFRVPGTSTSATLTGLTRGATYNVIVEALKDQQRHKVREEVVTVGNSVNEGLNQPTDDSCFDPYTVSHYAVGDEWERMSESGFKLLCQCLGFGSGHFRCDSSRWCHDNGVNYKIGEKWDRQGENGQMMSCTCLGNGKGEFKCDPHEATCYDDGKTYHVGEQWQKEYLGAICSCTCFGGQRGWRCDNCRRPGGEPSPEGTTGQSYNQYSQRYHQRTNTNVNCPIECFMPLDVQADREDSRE

Substance: PMCTQRANRIAACRRDSDCTGACICRGNGYCG (Control peptide) [MC-FN-0115, reference compound]
immunofluorescence staining of U-87 MG tumor sections (U-87 MG tumor tissues): no fluorescence signal at all | fluorescence signal on normal mouse brain section (normal mouse brain): No fluorescence signal

Substance: PMCTQRANRIRLCRRDSDCTGACICRGNGYCG [MC-FN-016]
off-rates (FN-67B89): fast | binding affinity towards biotinylated FN-67B89 (FN-67B89): one digit micromolar range

Substance: WKCQPTNGYRIRCRRDSDCPGDCICRGNGYCG (cysteine pairing not given here) [MCopt 1.0-2]
off-target and control protein signals (FN-6789): medium to low

Substance: SVCKNVSIMRIRLCRRDSDCPGACICRGNGYCG (cysteine pairing not given here) [MCopt 2.0-1]
off-target and control protein signals (FN-6789): medium to low

Substance: SVCAHYNTIRVRLCRRDSDCPGACICRGNGYCG (cysteine pairing not given here) [MCopt 2.0-2]
off-target and control protein signals (FN-6789): medium to low

Substance: SVCKQANFVRIRLCRRDSDCPGACICRGNGYCG (cysteine pairing not given here) [MCopt 2.0-3]
off-target and control protein signals (FN-6789): medium to low | background signals / unspecific binding towards FN-6789 off-target (FN-6789; dose-dependent saturation-binding ELISA, compared with EDB containing target proteins): high degree of unspecific binding

Substance: PMCTQRKNRIRLCRRDSDCTGACICRGNGYCG (cysteine pairing not given here) [MC-FN-010]
off-target and control protein signals (FN-6789): medium to low | off-rates (FN-67B89): fast | binding affinity towards biotinylated FN-67B89 (FN-67B89): one digit micromolar range | binding towards FN-67B89 target protein (FN-67B89; tag-free proteins, 50-1000 nM, data not shown): strong binding | fluorescence signal on normal mouse brain section (normal mouse brain): No fluorescence signal

off-target and control protein signals (FN-6789): high interaction
Substance: MCopt 1.0-1: enriched cystine-knot miniprotein clone without the R-I/V-R-(L) motif, SEQ ID NO: 10 (WTCTKKYPNTISCRRDSDCRVTCICRGNGYCG; EDB binding peptide)
